How the values were obtained:
NCI-H2731 (Mesothelioma) = test: Bliss excess, mean over the matrix (fraction); higher = more synergy
How it was run: (§1)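 Cell lines grown in DMEM/F12 or RPMI with 10% FBS were plated in 1536-well plates and held 24 hours at 37°C, 5% CO2 before 72 hours of exposure to two-drug dose matrices, with DMSO typically at 0.2%. CellTiter-Glo 2.0 luminescence gave viability, which was converted to inhibition. Vehicle wells were set to 0 and blank wells to 1. Combination Emax is the second-highest inhibition in the matrix, and Bliss excess is the observed combination effect minus the expected EA + EB − EA·EB, where EA and EB are the single-agent effects.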

[1] = test system: KYSE-270 (Esophageal Squamous Cell Carcinoma); test: as above
How it was run: as §1

[2] = test system: T-T (Esophageal Squamous Cell Carcinoma); test: as above
How it was run: as §1

[3] = test system: ESO51 (Esophageal Adenocarcinoma); test: as above
How it was run: as §1

[4] = test system: SU-DHL-5 (B-Cell Non-Hodgkin's Lymphoma); test: as above
How it was run: as §1

[5] = test system: SK-GT-4 (Esophageal Adenocarcinoma); test: as above
How it was run: as §1

[6] = test system: VMRC-RCZ (Kidney Carcinoma); test: as above
How it was run: as §1

[7] = test system: CHSA8926 (Chondrosarcoma); test: as above
How it was run: as §1

[8] = test system: JHH-4 (Hepatocellular Carcinoma); test: as above
How it was run: as §1

[9] = test system: CW-2 (Colorectal Carcinoma); test: as above
How it was run: as §1

[10] = test system: MN-60 (B-Lymphoblastic Leukemia); test: as above
How it was run: as §1

[11] = test system: IM-95 (Gastric Carcinoma); test: as above
How it was run: as §1

[12] = test system: KU812 (Chronic Myelogenous Leukemia); test: as above
How it was run: as §1

[13] = test system: SUP-B15 (B-Lymphoblastic Leukemia); test: as above
How it was run: as §1

[14] = test system: SK-GT-2 (Gastric Carcinoma); test: as above
How it was run: as §1

[15] = test system: H9 (T-Cell Non-Hodgkin's Lymphoma); test: as above
How it was run: as §1

[16] = test system: NCI-H526 (Small Cell Lung Carcinoma); test: as above
How it was run: as §1

[17] = test system: COR-L279 (Small Cell Lung Carcinoma); test: as above
How it was run: as §1

G-361 (Melanoma) = test: as above
How it was run: as §1

[18] = test system: SK-GT-2 (Gastric Carcinoma); test: combination Emax (second highest fraction inhibited in the dose matrix, 72 h); higher = more inhibition; extreme values may be limits of the assay
How it was run: as §1
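Wherever Bliss excess, mean over the matrix is given: after 72 h of two-drug dosing.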

Structure (SMILES) | Bliss excess (NCI-H2731 (Mesothelioma)) | Bliss excess [1] | Bliss excess [2] | Bliss excess [3] | Bliss excess [4] | Bliss excess [5] | Bliss excess [6] | Bliss excess [7] | Bliss excess [8] | Bliss excess [9] | Bliss excess [10] | Bliss excess [11] | Bliss excess [12] | Bliss excess [13] | Bliss excess [14] | Bliss excess [15] | Bliss excess [16] | Bliss excess [17] | Bliss excess (G-361 (Melanoma)) | combination Emax [18]
CN(C)CCCOc1ccc(-c2ccc3ncc4c(c3c2)n(C2CCOCC2)c(=O)n4C)cn1 [AZD0156] + CCN(CCO)CCCOc1ccc2c(Nc3cc(CC(=O)Nc4cccc(F)c4)[nH]n3)ncnc2c1 [AZD2811] (first compound max 1 µM, 7x7, partner max 1 µM) | -0.0279 | -0.0307 | -0.0262 | -0.0147 | -0.0542 | -0.0603 | -0.0451 | -0.0389 | -0.0297 | -0.0163 | -0.016 | 0.0925 | -0.0158 | -0.0595 | -0.0156 | -0.124 | 0.0113 | 0.0256 | -0.0148 | 0.0747
CCN(CCO)CCCOc1ccc2c(Nc3cc(CC(=O)Nc4cccc(F)c4)[nH]n3)ncnc2c1 [AZD2811] + O=C(c1cc(Cc2n[nH]c(=O)c3ccccc23)ccc1F)N1CCN(C(=O)C2CC2)CC1 [Olaparib] (first compound max 1 µM, 7x7, partner max 10 µM) | 0.0001 | 0.0212 | -0.0073 | -0.0379 | -0.0466 | 0.0123 | -0.0325 | 0.0124 | -0.0293 | 0.0119 | -0.0206 | 0.0087 | -0.0189 | -0.0227 | 0.0218 | -0.0965 | 0.0486 | -0.0125 | -0.0295 | 0.203
Cn1cnc2c(F)c(Nc3ccc(Br)cc3Cl)c(C(=O)NOCCO)cc21 [Selumetinib] + CCN(CCO)CCCOc1ccc2c(Nc3cc(CC(=O)Nc4cccc(F)c4)[nH]n3)ncnc2c1 [AZD2811] (first compound max 10 µM, 7x7, partner max 1 µM) | -0.0293 | 0.0103 | -0.0072 | 0.0567 | 0.0214 | -0.0533 | -0.0501 | -0.0593 | -0.0412 | -0.0142 | -0.0202 | 0.0874 | -0.0731 | 0.0553 | -0.0443 | -0.0129 | -0.017 | -0.0243 | 0.0005 | 0.173
Cc1c2c(nn1C)CSCc1cc(n(C)n1)CSc1cc(c3ccccc3c1)OCCCc1c(C(=O)O)n(C)c3c-2c(Cl)ccc13 [AZD5991] + C1CN(CCC1(C(=O)N[C@@H](CCO)C2=CC=C(C=C2)Cl)N)C3=NC=NC4=C3C=CN4 [Capivasertib] (first compound max 1 µM, 7x7, partner max 3 µM) | -0.0722 | 0.0421 | -0.0068 | -0.0239 | 0.0095 | -0.0213 | -0.0347 | 0.0131 | 0.0018 | 0.0132 | 0.0165 | -0.0384 | -0.0011 | -0.0025 | -0.0049 | -0.0514 | 0.0139 | 0.0417 | -0.0055 | 0.132
COc1cc2ncnc(Nc3ccc(F)c(Cl)c3)c2cc1OCCCN1CCOCC1 [Gefitinib] + CC(C)n1c(=O)n(C)c2cnc3cc(F)c(-c4ccc(OCCCN5CCCCC5)nc4)cc3c21 [AZD1390] (first compound max 10 µM, 7x7, partner max 0.3 µM) | -0.0434 | -0.003 | -0.0411 | -0.0488 | -0.0317 | -0.0846 | -0.0621 | -0.113 | -0.0751 | -0.031 | -0.0444 | -0.0527 | -0.0436 | -0.0673 | -0.0382 | -0.0723 | -0.0342 | -0.0419 | -0.0718 | 0.768
CN(CCO)CC[C@H](CSc1ccccc1)Nc1ccc(S(=O)(=O)NC(=O)c2ccc(N3CCC([C@@H](O)c4ccccc4-c4ccc(Cl)cc4)CC3)cc2)cc1S(=O)(=O)C(F)(F)F [AZD4320] + CN(C)CCCOc1ccc(-c2ccc3ncc4c(c3c2)n(C2CCOCC2)c(=O)n4C)cn1 [AZD0156] (first compound max 1 µM, 7x7, partner max 1 µM) | -0.0485 | -0.0152 | -0.0047 | -0.0095 | -0.066 | -0.067 | -0.058 | -0.0797 | -0.016 | -0.007 | 0.0032 | -0.0683 | -0.0086 | -0.0535 | 0.0006 | -0.0151 | -0.0092 | 0.0041 | 0.001 | 0.154
CC(=O)c1c(C)c2cnc(Nc3ccc(N4CCNCC4)cn3)nc2n(C2CCCC2)c1=O [Palbociclib] + Cn1cnc2c(F)c(Nc3ccc(Br)cc3Cl)c(C(=O)NOCCO)cc21 [Selumetinib] (first compound max 10 µM, 7x7, partner max 10 µM) | -0.0341 | -0.0512 | 0.0252 | 0.0041 | 0.101 | -0.0126 | -0.0367 | -0.0697 | -0.0336 | 0.0099 | -0.0405 | 0.0356 | -0.0536 | 0.0147 | -0.0175 | -0.0868 | -0.0213 | -0.025 | -0.0785 | 0.165
CCc1c2c(nc3ccc(O)cc13)-c1cc3c(c(=O)n1C2)COC(=O)[C@]3(O)CC [SN-38] + CN(C)CCCOc1ccc(-c2ccc3ncc4c(c3c2)n(C2CCOCC2)c(=O)n4C)cn1 [AZD0156] (first compound max 0.3 µM, 7x7, partner max 1 µM) | -0.0407 | -0.0393 | -0.0151 | -0.031 | 0.0712 | -0.12 | -0.0124 | -0.0646 | 0.0443 | -0.0118 | 0.0279 | 0.0208 | -0.027 | -0.0408 | 0.0054 | 0.116 | 0.0215 | 0.0163 | 0.0105 | 0.444
NC1(C(=O)N[C@@H](CCO)c2ccc(Cl)cc2)CCN(c2ncnc3[nH]ccc23)CC1 [Capivasertib] + Cn1cnc2c(F)c(Nc3ccc(Br)cc3Cl)c(C(=O)NOCCO)cc21 [Selumetinib] (first compound max 10 µM, 7x7, partner max 10 µM) | -0.0115 | 0.0691 | 0.095 | 0.0417 | 0.0547 | -0.0373 | -0.0066 | 0.034 | -0.0762 | -0.0035 | -0.0652 | -0.0017 | -0.0282 | 0.0854 | 0.063 | 0.0271 | 0.0296 | 0.0214 | 0.0429 | 0.497
Cn1cnc2c(F)c(Nc3ccc(Br)cc3Cl)c(C(=O)NOCCO)cc21 [Selumetinib] + C[C@@H]1COCCN1C2=NC(=NC(=C2)C3(CC3)[S@](=N)(=O)C)C4=C5C=CNC5=NC=C4 [AZD6738] (first compound max 10 µM, 7x7, partner max 10 µM) | -0.0187 | -0.0302 | -0.041 | 0.0119 | 0.074 | 0.017 | -0.0594 | -0.031 | -0.0395 | 0.009 | -0.0319 | 0.0554 | -0.0779 | 0.142 | -0.0229 | -0.03 | -0.0544 | -0.0377 | -0.0081 | 0.186
COc1cccc(OCCCN)c1-c1cc(Nc2cnc(C#N)cn2)n[nH]1 [Prexasertib] + O=C(c1cc(Cc2n[nH]c(=O)c3ccccc23)ccc1F)N1CCN(C(=O)C2CC2)CC1 [Olaparib] (first compound max 1 µM, 7x7, partner max 10 µM) | -0.0228 | -0.0789 | 0.0186 | -0.248 | -0.0097 | -0.0984 | -0.049 | -0.0147 | 0.0296 | -0.0281 | -0.0494 | -0.0102 | -0.0947 | -0.0191 | -0.0472 | -0.0088 | -0.0214 | -0.0493 | -0.0411 | 0.834
CCN(CCO)CCCOc1ccc2c(Nc3cc(CC(=O)Nc4cccc(F)c4)[nH]n3)ncnc2c1 [AZD2811] + C[C@@H]1COCCN1C2=NC(=NC(=C2)C3(CC3)[S@](=N)(=O)C)C4=C5C=CNC5=NC=C4 [AZD6738] (first compound max 1 µM, 7x7, partner max 10 µM) | -0.0668 | -0.0449 | -0.0105 | -0.0567 | -0.0382 | -0.0183 | -0.085 | -0.0037 | -0.0341 | -0.0116 | -0.0215 | 0.0291 | -0.0764 | -0.0468 | -0.0272 | -0.0673 | -0.0178 | 0.0322 | -0.0875 | 0.289
NC1(C(=O)N[C@@H](CCO)c2ccc(Cl)cc2)CCN(c2ncnc3[nH]ccc23)CC1 [Capivasertib] + CCN(CCO)CCCOc1ccc2c(Nc3cc(CC(=O)Nc4cccc(F)c4)[nH]n3)ncnc2c1 [AZD2811] (first compound max 10 µM, 7x7, partner max 1 µM) | 0.0438 | -0.0289 | 0.013 | -0.0363 | -0.0225 | -0.016 | -0.046 | -0.0687 | -0.0088 | -0.0348 | -0.0095 | -0.0168 | 0.0173 | -0.103 | -0.0239 | -0.0361 | -0.0052 | -0.054 | 0.0426 | 0.417
Cc1cc2ncnn2cc1Nc1ncc2c(n1)n(C1CCOCC1)c(=O)n2C [AZD7648] + C[C@@H]1COCCN1C2=NC(=NC(=C2)C3(CC3)[S@](=N)(=O)C)C4=C5C=CNC5=NC=C4 [AZD6738] (first compound max 10 µM, 7x7, partner max 10 µM) | 0.055 | 0.0008 | 0.0146 | 0.0153 | 0.0007 | 0.0068 | 0.0115 | -0.0325 | 0.013 | 0.0297 | -0.0135 | 0.0163 | 0.0087 | -0.0159 | -0.0034 | -0.0034 | 0.0174 | 0.0253 | 0.0105 | 0.216
CN(CCO)CC[C@H](CSc1ccccc1)Nc1ccc(S(=O)(=O)NC(=O)c2ccc(N3CCC([C@@H](O)c4ccccc4-c4ccc(Cl)cc4)CC3)cc2)cc1S(=O)(=O)C(F)(F)F [AZD4320] + Cc1cc2ncnn2cc1Nc1ncc2c(n1)n(C1CCOCC1)c(=O)n2C [AZD7648] (first compound max 1 µM, 7x7, partner max 10 µM) | -0.0424 | -0.0197 | -0.0069 | -0.0168 | -0.0099 | -0.0413 | -0.058 | 0.0101 | -0.0356 | -0.006 | -0.0177 | -0.0645 | – | -0.0072 | -0.0034 | 0.0046 | -0.0069 | -0.0057 | -0.0444 | 0.245
